According to ChEMBL document CHEMBL3352482, “Discovery of potent N-(isoxazol-5-yl)amides as HSP90 inhibitors” (Eur J Med Chem, 2014):

Experiments:
[1] = Antitumor activity against human U87MG cells xenografted in mouse assessed as tumor growth inhibition at 25 mg/kg, iv dosed 3 times per week for 17 consecutive days relative to control; type: functional, U-87MG ATCC
[2] = Antitumor activity against human U87MG cells xenografted in mouse assessed as tumor growth inhibition at 50 mg/kg, iv dosed 3 times per week for 17 consecutive days relative to control; type: functional, U-87MG ATCC
Mus musculus = test: Toxicity in human U87MG cells xenografted mouse assessed as weight loss at 25 to 50 mg/kg, iv dosed 3 times per week for 17 consecutive days relative to control; type: organism-based, U-87MG ATCC; design: dose 25-50 mg/kg, route intravenous; settings: in vivo
A549 = test: Growth inhibition of human A549 cells after 72 hrs by SRB assay; type: functional; settings: A549, 72 h
[3] = Intrinsic clearance in rat liver microsomes assessed per mg protein; type: ADME; settings: read-out: CLH
[4] = Intrinsic clearance in human liver microsomes assessed per mg protein; type: ADME; settings: read-out: CLH
CYP3A4 = CYP3A4 (Homo sapiens, UniProt P08684); test: Inhibition of CYP3A4 in human liver microsomes at 10 uM after 20 mins; settings: human liver microsomes
CYP2D6 = CYP2D6 (Homo sapiens, UniProt P10635); test: Inhibition of CYP2D6 in human liver microsomes at 10 uM after 20 mins
CYP2C9 = CYP2C9 (Homo sapiens, UniProt P11712); test: Inhibition of CYP2C9 in human liver microsomes at 10 uM after 20 mins
CYP1A2 = target: T1, CYP1A2 (Homo sapiens, UniProt P05177); test: Inhibition of CYP1A2 in human liver microsomes at 10 uM after 20 mins
T1 sequence (P05177 whole entry): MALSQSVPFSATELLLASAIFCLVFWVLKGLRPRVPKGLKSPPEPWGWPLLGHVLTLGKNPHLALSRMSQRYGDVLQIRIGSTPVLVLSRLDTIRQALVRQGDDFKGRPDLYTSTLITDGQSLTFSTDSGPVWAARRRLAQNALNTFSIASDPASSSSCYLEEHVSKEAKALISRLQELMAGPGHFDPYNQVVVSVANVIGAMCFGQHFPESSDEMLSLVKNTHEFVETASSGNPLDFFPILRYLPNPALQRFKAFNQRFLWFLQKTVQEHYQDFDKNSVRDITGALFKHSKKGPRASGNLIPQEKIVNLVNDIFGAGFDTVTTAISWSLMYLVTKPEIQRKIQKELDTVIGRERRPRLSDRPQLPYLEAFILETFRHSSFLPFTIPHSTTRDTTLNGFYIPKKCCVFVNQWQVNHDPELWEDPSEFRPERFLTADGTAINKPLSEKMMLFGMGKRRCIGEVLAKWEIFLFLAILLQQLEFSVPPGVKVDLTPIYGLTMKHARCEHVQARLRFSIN

Chain of CYP2D6 (P10635 whole entry): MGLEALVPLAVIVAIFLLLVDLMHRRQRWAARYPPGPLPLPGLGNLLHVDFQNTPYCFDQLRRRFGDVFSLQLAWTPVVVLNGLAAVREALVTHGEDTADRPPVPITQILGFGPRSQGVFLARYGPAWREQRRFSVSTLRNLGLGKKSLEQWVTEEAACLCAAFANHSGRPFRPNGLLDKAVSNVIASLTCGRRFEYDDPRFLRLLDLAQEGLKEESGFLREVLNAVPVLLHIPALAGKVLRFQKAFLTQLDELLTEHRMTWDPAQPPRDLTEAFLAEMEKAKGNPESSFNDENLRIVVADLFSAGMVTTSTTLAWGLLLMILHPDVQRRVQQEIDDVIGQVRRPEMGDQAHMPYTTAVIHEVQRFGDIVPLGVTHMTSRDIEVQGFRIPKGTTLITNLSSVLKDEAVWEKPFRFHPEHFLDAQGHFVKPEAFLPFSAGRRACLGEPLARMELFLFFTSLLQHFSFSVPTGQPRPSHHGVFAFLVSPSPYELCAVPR
Chain of CYP2C9 (P11712 whole entry): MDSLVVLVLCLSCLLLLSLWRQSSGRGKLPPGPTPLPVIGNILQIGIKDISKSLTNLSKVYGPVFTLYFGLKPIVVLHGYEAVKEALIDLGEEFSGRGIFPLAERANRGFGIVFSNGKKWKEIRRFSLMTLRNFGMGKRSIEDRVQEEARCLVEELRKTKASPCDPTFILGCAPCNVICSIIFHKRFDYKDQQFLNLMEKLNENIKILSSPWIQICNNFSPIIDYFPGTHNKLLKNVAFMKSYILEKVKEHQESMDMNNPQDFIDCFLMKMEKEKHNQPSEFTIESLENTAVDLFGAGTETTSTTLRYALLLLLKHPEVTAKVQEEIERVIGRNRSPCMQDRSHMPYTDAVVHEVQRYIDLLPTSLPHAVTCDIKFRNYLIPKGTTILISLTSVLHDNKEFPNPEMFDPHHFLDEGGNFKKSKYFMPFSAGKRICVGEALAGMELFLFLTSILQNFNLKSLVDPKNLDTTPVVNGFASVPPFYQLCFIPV
Chain of CYP3A4 (P08684 whole entry): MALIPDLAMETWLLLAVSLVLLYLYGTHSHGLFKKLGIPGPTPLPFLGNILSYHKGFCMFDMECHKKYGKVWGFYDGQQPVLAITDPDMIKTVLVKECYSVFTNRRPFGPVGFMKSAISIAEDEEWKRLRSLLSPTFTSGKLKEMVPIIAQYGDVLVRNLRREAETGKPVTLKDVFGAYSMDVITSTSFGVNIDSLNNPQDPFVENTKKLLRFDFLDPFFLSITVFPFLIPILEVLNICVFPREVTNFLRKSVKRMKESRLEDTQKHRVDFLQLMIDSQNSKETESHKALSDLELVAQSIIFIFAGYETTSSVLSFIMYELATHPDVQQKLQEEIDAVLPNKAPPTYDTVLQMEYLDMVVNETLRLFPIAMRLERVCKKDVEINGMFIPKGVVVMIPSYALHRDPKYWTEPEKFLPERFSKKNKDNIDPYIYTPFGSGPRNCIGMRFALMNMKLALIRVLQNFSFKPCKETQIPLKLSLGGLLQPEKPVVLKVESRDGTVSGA

Row | SMILES | T/C [1] | T/C [2] | Activity (Mus musculus) | GI50 (A549) | microsomal CLint [3] | microsomal CLint [4] | inhibition at 20 min, 10 µM (CYP3A4) | inhibition at 20 min, 10 µM (CYP2D6) | inhibition at 20 min, 10 µM (CYP2C9) | inhibition at 20 min, 10 µM (CYP1A2)
1 | CC(C)c1cc(-c2noc(NC(=O)C3CC3)c2-c2ccc(CN3CCC(N4CCOCC4)CC3)cc2)c(O)cc1O.Cl | 48.28% | 18.35% | Non-toxic | – | – | – | – | – | – | –
2 | CCNC(=O)c1noc(-c2cc(C(C)C)c(O)cc2O)c1-c1ccc(CN2CCOCC2)cc1 [LUMINESPIB] | – | 34.06% | – | 26 nM | 180 µL/min/mg | 92 µL/min/mg | 12% | 30% | 46% | 23%
